Source: BindingDB's records for patent US10626113 (Columbia University, 2020)

Biological target: cGMP-specific 3',5'-cyclic phosphodiesterase (Homo sapiens, UniProt O76074)
Assay: PDE5 Inhibition Assay
Experimental: Test compounds were supplied as liquid solutions of 10 mM concentration in DMSO. Sildenafil, used as a standard was dissolved in DMSO. […] 0.1 ng of enzyme was used per reaction, and the substrate was 100 nM FAM-cGMP.Assay conditions: A series of dilutions of the test compounds were prepared with 10% DMSO in assay buffer and 5 μl of the dilution was added to a 50 μl reaction so that the final concentration of DMSO is 1% in all of reactions. The enzymatic reactions were conducted at room temperature for 60 minutes in a 50 μl mixture containing PDE assay buffer, 100 nM FAM-cAMP or 100 nM FAM-cGMP, a PDE enzyme, and the test compound. After the enzymatic reaction, 100 μl of a binding solution (1:100 dilution of the binding agent with the binding agent diluent) was added to each reaction and the reaction was performed at room temperature for 60 minutes. […] Fluorescence intensity is converted to fluorescence polarization using the Tecan Magellan6 software. The fluorescence polarization data were analyzed using the computer software, Graphpad Prism. The fluorescence polarization (FPt) in absence of the compound in each data set was defined as 100% activity. In the absence of PDE and the compound, the value of fluorescent polarization (FPb) in each data set was defined as 0% activity. The percent activity in the presence of the compound was calculated according to the following equation: % activity=(FP−FPb)/(FPt−FPb)×100%, where FP=the fluorescence polarization in the presence of the compound.

SMILES	IC50 [nM]
COc1ccc(Nc2c3c(nc4ccc(C#N)cc24)CCN(C(C)=O)C3)cc1Cl [US10899756, Compound S]	593
COc1ccc(C(C)Nc2c3c(nc4ccc(C#N)cc24)CCN(C(C)=O)C3)cc1Cl (centres undefined) [US10899756, Compound V]	26.9
COc1ccc(CCNc2c3c(nc4ccc(C#N)cc24)CCN(C(C)=O)C3)cc1Cl [US10899756, Compound W]	10.6
COc1cc(Nc2c3c(nc4ccc(C#N)cc24)CCN(C(C)=O)C3)ccc1Cl [US10899756, Compound T]	425
